Patent US10064907B2, “Process to improve feed efficiency and carcass characteristics of animals” (Oligo Basics Agroindustrial LTDA., priority 2012, dated 2018)
Marks after values point to notes of the source that are not given here.

Columns and labels:
[1] = Carcass characteristics of steers, Composition versus Monensin (Example 3); assay type: in vivo; settings: Monensin 223 mg/head/day, Composition 500 ppm in total feed, treatments differ P < 0.05
Description: The two groups were treated with Monensin (223 mg/head/day) and the Composition (500 ppm in total feed). Monensin is the antibiotic used in the industry as a standard to affect microbial populations in the rumen of the animals. The change in microbial populations in the rumen shifts the fermentation end products, which results in an improvement in the energy efficiency of the animal. By comparing the Composition to the industry standard, the effects due to changes in microbial populations can be deleted. Therefore, if differences were found between Monensin treated animals and the Composition treated animals, those differences would not arise from the antimicrobial effects, as both products inhibit the same type of bacteria (gram positive). The Composition was 40% cashew nut shell liquid, 12% castor oil and 48% expanded vermiculite. Dressing percent is the percentage of the carcass in relation to the total weight of the animal. Carcass quality grade goes from 1 to 9 to indicate, in increasing order, the amount of intramuscular fat. Meats with higher levels of intramuscular fat are more tender and, therefore, more expensive. Also, as the amount of energy found per unit of fat is twice as much as the amount of energy found per unit of carbohydrate and […], meats with more intramuscular fat are more energy dense than […]. […]

[2] = rats, supplemented vs non-supplemented animals; cited from earlier work

SMILES	Carcass quality grade ([1]; grade from 1 to 9, increasing intramuscular fat, steers fed from 322 kg to 617 kg)	Dressing percent (percentage of the carcass in relation to the total weight of the animal) ([1]; steers fed from 322 kg to 617 kg live weight)	effects on feed efficiency [2]
CC[C@@]1([C@@H]2O[C@@H]([C@H]3O[C@@](O)(CO)[C@H](C)C[C@@H]3C)C[C@@H]2C)CC[C@H]([C@]2(C)CC[C@]3(C[C@H](O)[C@@H](C)[C@@H]([C@@H](C)[C@@H](OC)[C@H](C)C(=O)O)O3)O2)O1 [Monensin]	3.18^a	60^a percent	
CCCCCCCCCCCCCCCc1cccc(O)c1C(=O)O [anacardic acid]			no differences
